# From US9469650B2, “Melampomagnolide B derivatives” (BOARD OF TRUSTEES OF THE UNIVERSITY OF ARKANSAS, priority 2013, dated 2016)
# Tests used:
# MDA-MB-435 = assay: panel of 60 human tumor cell lines, growth inhibition (Melanoma); conditions: MDA-MB-435
# SK-MEL-2 = assay: as above; conditions: SK-MEL-2
# SF-539 = assay: panel of 60 human tumor cell lines, growth inhibition (CNS Cancer); conditions: SF-539
# U251 = assay: as above; conditions: U251
# HCT-116 = assay: panel of 60 human tumor cell lines, growth inhibition (Colon Cancer); conditions: HCT-116
# HT29 = assay: as above; conditions: HT29
# KM12 = assay: as above; conditions: KM12
# 786-0 = assay: panel of 60 human tumor cell lines, growth inhibition (Renal Cancer); conditions: 786-0
# A498 = assay: as above; conditions: A498
# SN12C = assay: as above
# MDA-MB-231/ATCC = assay: panel of 60 human tumor cell lines, growth inhibition (Breast Cancer); conditions: MDA-MB-231/ATCC
# OVCAR-5 = assay: panel of 60 human tumor cell lines, growth inhibition (Ovarian Cancer); conditions: OVCAR-5
# NCI/ADR-RES = assay: as above
# PC-3 = assay: panel of 60 human tumor cell lines, growth inhibition (Prostate Cancer); conditions: PC-3
# DU-145 = assay: as above; conditions: DU-145
# HOP-62 = assay: panel of 60 human tumor cell lines, growth inhibition (Non-Small Cell Lung Cancer); conditions: HOP-62
# NCI-H322M = assay: as above
# NCI-H460 = assay: as above; conditions: NCI-H460
compound,measurement,setting,value
C=C1C(=O)O[C@H]2[C@H]1CC/C(COC(=O)NCCN1CCCCC1)=C\CC[C@@]1(C)O[C@@H]21 [JVM 2-13],GI50,MDA-MB-435,4.13 µM
same,TGI,MDA-MB-435,16.7 µM
same,Percent Growth,MDA-MB-435; Log10 Concentration −4.0,−93%
same,Percent Growth,MDA-MB-435; Log10 Concentration −5.0,27%
same,Percent Growth,MDA-MB-435; Log10 Concentration −6.0,87%
same,Percent Growth,MDA-MB-435; Log10 Concentration −7.0,97%
same,Percent Growth,MDA-MB-435; Log10 Concentration −8.0,95%
same,GI50,SK-MEL-2,17 µM
same,TGI,SK-MEL-2,34.4 µM
same,Percent Growth,SK-MEL-2; Log10 Concentration −4.0,−76%
same,Percent Growth,SK-MEL-2; Log10 Concentration −5.0,88%
same,Percent Growth,SK-MEL-2; Log10 Concentration −6.0,113%
same,Percent Growth,SK-MEL-2; Log10 Concentration −7.0,113%
same,Percent Growth,SK-MEL-2; Log10 Concentration −8.0,103%
same,GI50,SF-539,3.23 µM
same,TGI,SF-539,13.1 µM
same,Percent Growth,SF-539; Log10 Concentration −4.0,−78%
same,Percent Growth,SF-539; Log10 Concentration −5.0,10%
same,Percent Growth,SF-539; Log10 Concentration −6.0,91%
same,Percent Growth,SF-539; Log10 Concentration −7.0,91%
same,Percent Growth,SF-539; Log10 Concentration −8.0,92%
same,GI50,U251,17.5 µM
same,TGI,U251,13.5 µM
same,Percent Growth,U251; Log10 Concentration −4.0,−84%
same,Percent Growth,U251; Log10 Concentration −5.0,93%
same,Percent Growth,U251; Log10 Concentration −6.0,94%
same,Percent Growth,U251; Log10 Concentration −7.0,97%
same,Percent Growth,U251; Log10 Concentration −8.0,98%
same,GI50,HCT-116,2.72 µM
same,TGI,HCT-116,11.4 µM
same,Percent Growth,HCT-116; Log10 Concentration −4.0,−92%
same,Percent Growth,HCT-116; Log10 Concentration −5.0,5%
same,Percent Growth,HCT-116; Log10 Concentration −6.0,84%
same,Percent Growth,HCT-116; Log10 Concentration −7.0,96%
same,Percent Growth,HCT-116; Log10 Concentration −8.0,95%
same,CC50,HCT-116; read-out: LC50,37 µM
same,GI50,HT29,3.76 µM
same,TGI,HT29,13 µM
same,Percent Growth,HT29; Log10 Concentration −4.0,−75%
same,Percent Growth,HT29; Log10 Concentration −5.0,10%
same,Percent Growth,HT29; Log10 Concentration −6.0,104%
same,Percent Growth,HT29; Log10 Concentration −7.0,100%
same,Percent Growth,HT29; Log10 Concentration −8.0,100%
same,GI50,KM12,14.4 µM
same,TGI,KM12,29.8 µM
same,Percent Growth,KM12; Log10 Concentration −4.0,−83%
same,Percent Growth,KM12; Log10 Concentration −5.0,75%
same,Percent Growth,KM12; Log10 Concentration −6.0,101%
same,Percent Growth,KM12; Log10 Concentration −7.0,106%
same,Percent Growth,KM12; Log10 Concentration −8.0,106%
same,GI50,786-0,3.95 µM
same,TGI,786-0,17.3 µM
same,Percent Growth,786-0; Log10 Concentration −4.0,−74%
same,Percent Growth,786-0; Log10 Concentration −5.0,23%
same,Percent Growth,786-0; Log10 Concentration −6.0,90%
same,Percent Growth,786-0; Log10 Concentration −7.0,89%
same,Percent Growth,786-0; Log10 Concentration −8.0,86%
same,GI50,A498,11.8 µM
same,TGI,A498,25 µM
same,Percent Growth,A498; Log10 Concentration −4.0,−92%
same,Percent Growth,A498; Log10 Concentration −5.0,61%
same,Percent Growth,A498; Log10 Concentration −6.0,71%
same,Percent Growth,A498; Log10 Concentration −7.0,65%
same,Percent Growth,A498; Log10 Concentration −8.0,73%
same,GI50,SN12C,3.75 µM
same,TGI,SN12C,16.2 µM
same,Percent Growth,SN12C; Log10 Concentration −4.0,−71%
same,Percent Growth,SN12C; Log10 Concentration −5.0,19%
same,Percent Growth,SN12C; Log10 Concentration −6.0,92%
same,Percent Growth,SN12C; Log10 Concentration −7.0,94%
same,Percent Growth,SN12C; Log10 Concentration −8.0,97%
same,GI50,MDA-MB-231/ATCC,5.69 µM
same,TGI,MDA-MB-231/ATCC,20.8 µM
same,Percent Growth,MDA-MB-231/ATCC; Log10 Concentration −4.0,−79%
same,Percent Growth,MDA-MB-231/ATCC; Log10 Concentration −5.0,37%
same,Percent Growth,MDA-MB-231/ATCC; Log10 Concentration −6.0,91%
same,Percent Growth,MDA-MB-231/ATCC; Log10 Concentration −7.0,99%
same,Percent Growth,MDA-MB-231/ATCC; Log10 Concentration −8.0,107%
same,GI50,OVCAR-5,10.6 µM
same,TGI,OVCAR-5,24.2 µM
same,Percent Growth,OVCAR-5; Log10 Concentration −4.0,−86%
same,Percent Growth,OVCAR-5; Log10 Concentration −5.0,53%
same,Percent Growth,OVCAR-5; Log10 Concentration −6.0,82%
same,Percent Growth,OVCAR-5; Log10 Concentration −7.0,87%
same,Percent Growth,OVCAR-5; Log10 Concentration −8.0,84%
same,GI50,NCI/ADR-RES,31.2 µM
same,TGI,NCI/ADR-RES,>100 µM
same,Percent Growth,NCI/ADR-RES; Log10 Concentration −4.0,4%
same,Percent Growth,NCI/ADR-RES; Log10 Concentration −5.0,95%
same,Percent Growth,NCI/ADR-RES; Log10 Concentration −6.0,103%
same,Percent Growth,NCI/ADR-RES; Log10 Concentration −7.0,107%
same,Percent Growth,NCI/ADR-RES; Log10 Concentration −8.0,103%
same,GI50,PC-3,15.7 µM
same,TGI,PC-3,33.3 µM
same,Percent Growth,PC-3; Log10 Concentration −4.0,−73%
same,Percent Growth,PC-3; Log10 Concentration −5.0,80%
same,Percent Growth,PC-3; Log10 Concentration −6.0,94%
same,Percent Growth,PC-3; Log10 Concentration −7.0,96%
same,Percent Growth,PC-3; Log10 Concentration −8.0,97%
same,GI50,DU-145,4.89 µM
same,TGI,DU-145,16.6 µM
same,Percent Growth,DU-145; Log10 Concentration −4.0,−97%
same,Percent Growth,DU-145; Log10 Concentration −5.0,27%
same,Percent Growth,DU-145; Log10 Concentration −6.0,101%
same,Percent Growth,DU-145; Log10 Concentration −7.0,108%
same,Percent Growth,DU-145; Log10 Concentration −8.0,110%
same,GI50,HOP-62,17 µM
same,Percent Growth,HOP-62; Log10 Concentration −4.0,−77%
same,Percent Growth,HOP-62; Log10 Concentration −5.0,88%
same,Percent Growth,HOP-62; Log10 Concentration −6.0,91%
same,Percent Growth,HOP-62; Log10 Concentration −7.0,95%
same,Percent Growth,HOP-62; Log10 Concentration −8.0,86%
same,GI50,NCI-H322M,17.4 µM
same,Percent Growth,NCI-H322M; Log10 Concentration −4.0,−89%
same,Percent Growth,NCI-H322M; Log10 Concentration −5.0,94%
same,Percent Growth,NCI-H322M; Log10 Concentration −6.0,106%
same,Percent Growth,NCI-H322M; Log10 Concentration −7.0,112%
same,Percent Growth,NCI-H322M; Log10 Concentration −8.0,105%
same,TGI,NCI-H460,36.5 µM
same,Percent Growth,NCI-H460; Log10 Concentration −4.0,−66%
same,Percent Growth,NCI-H460; Log10 Concentration −5.0,85%
same,Percent Growth,NCI-H460; Log10 Concentration −6.0,100%
same,Percent Growth,NCI-H460; Log10 Concentration −7.0,100%
same,Percent Growth,NCI-H460; Log10 Concentration −8.0,102%
